Assay results: US6518265B1, “1H-imidazopyridine derivatives” (Hokuriku Seiyaku Co., Ltd., priority 1998, dated 2003)
Where a name gives a salt, the structure may show the parent alone.

In the case of Clc1nc2c(c3c1nc(-c1ccccc1)n3CCC1CCNCC1)CCCC2 (as salt: trifluoroacetate) [Example 135], the melting point is reported as 215 to 221 °C (dec.).
Clc1nc2ccsc2c2c1nc(-c1ccccc1)n2CCC1CCNCC1 (as salt: trifluoroacetate) (hydrate or solvate) [Example 137] gave a melting point of 224 to 224.5 °C.
In the case of CNc1nc2ccccc2c2c1nc(-c1ccccc1)n2CCC1CCN(C(=O)OC(C)(C)C)CC1 (hydrate or solvate) [Example 95], the melting point is reported as 161 to 162 °C.
Cc1ccc(S(=O)(=O)N2CCC(CCn3cnc4c(Oc5ccccc5)nc5ccccc5c43)CC2)cc1 [Example 197] gave a melting point of 201.5 to 202 °C.
With Clc1nc2c(c3c1nc(-c1ccccc1)n3CCC1CCNCC1)CCC2 (as salt: trifluoroacetate) [Example 136] the melting point was 225 to 232 °C (dec.).
With CCOC(=O)N1CCC(CCn2cnc3c(Oc4ccccc4)nc4ccccc4c32)CC1 [Example 198] the melting point was 132 to 133 °C.
CC(C)(C)OC(=O)N1CCC(CCn2c(-c3ccccc3)nc3c(Cl)nc4ccsc4c32)CC1 [Example 35] gave a melting point of 199 to 200 °C.
In the case of Clc1nc2ccccc2c2c1nc(-c1ccccc1)n2CC[C@@H]1CCCN1 (as salt: fumarate) (hydrate or solvate) [Example 134], the melting point is reported as 261 to 272 °C (dec.).
In the case of CNC(=S)N1CCC(CCn2c(-c3ccccc3)nc3c(Cl)nc4ccccc4c32)CC1 [Example 201, 4-[2-(4-Chloro-2-phenyl-1H-imidazo[4,5-c]quinolin-1-yl)ethyl]-N-methyl-1-piperidinecarbothioamide], the melting point is reported as 215 to 220 °C (dec.).
In the case of CC(C)(C)OC(=O)N1CCC(CCn2c(-c3ccccc3)nc3c(Cl)nc4c(c32)CCCC4)CC1 [Example 33], the melting point is reported as 215 to 218 °C (dec.).
